Experiment [1] can be described thus: Reversal of adenosine induced reduction in IFNgamma production in human PBMC cells. In kind it is functional, cell-based.
For experiment [2], the target named is T1, 5'-nucleotidase (Homo sapiens, UniProt P21589). Briefly: Inhibition of C-terminal 6His-tagged human recombinant CD73 expressed in CHO cells incubated for 1 hr by malachite green based spectrophotometer assay. In kind it is cell-based.
Experiment [3] has as its target T1, 5'-nucleotidase. The experiment is described as follows: Binding affinity to human recombinant CD73 expressed in Sf9 cells assessed as inhibition constant by malachite green based spectrophotometer assay.
Experiment [4] deals with T1, 5'-nucleotidase. The experiment is described as follows: Binding affinity to human recombinant CD73 assessed as inhibition constant.
Experiment [5] has as its target T1, 5'-nucleotidase. The experiment is described as follows: Inhibition of CD73 (unknown origin).
Experiment [6] deals with T1, 5'-nucleotidase. The experiment is described as follows: Inhibition of human CD73 expressed in A-375 cells incubated for 15 mins by malachite green based spectrophotometer assay. The class given is cell-based.
For experiment [7], the target named is T1, 5'-nucleotidase. Briefly: Inhibition of CD73 (unknown origin) at 20 uM relative to control.
For experiment [8], the system named is MDA-MB-231. Briefly: Cytotoxicity against human MDA-MB-231 cells assessed as reduction in cell growth at 20 uM incubated for 48 hrs by CCK-8 assay relative to control. The class given is functional. Also noted: scale not given: the % may be the effect or the level left. A general note: Tetrazolium assays rely on reduction of a dye to a coloured formazan, in cell work by metabolically active cells.

The target of experiment [9] is T1, 5'-nucleotidase. Briefly: Inhibition of human recombinant CD73 (27 to 549 residues) expressed in Sf9 cells.
Experiment [10] deals with MDA-MB-231. The experiment is described as follows: Inhibition of cell migration in human MDA-MB-231 cells at 10 uM incubated for 48 hrs by Transwell assay. Set-up: scale not given: the % may be the effect or the level left. In kind it is functional.
Another experiment deals with 4T1. The experiment is described as follows: Inhibition of cell migration in mouse 4T1 cells at 10 uM incubated for 48 hrs by Transwell assay. Also noted: scale not given: the % may be the effect or the level left. The class given is functional.
The species named for another experiment is Homo sapiens. Briefly: Inhibition of adenosine transporter (unknown origin) at 20 uM relative to control.
In experiment [11] the target is T1, 5'-nucleotidase. The experiment is described as follows: Binding affinity to CD73 (unknown origin) assessed as inhibition constant.

Structures are written as SMILES.

What is called EC50 is the concentration that produces a half-maximal response. The term IC50 denotes the point on the concentration scale where inhibition reaches its midpoint. For orientation: Ki means a dissociation constant, usually derived from enzyme kinetics or from competition with a known ligand. One may read the inhibition as the drop in the measured response relative to a control, in per cent.

T1 sequence (P21589 whole entry): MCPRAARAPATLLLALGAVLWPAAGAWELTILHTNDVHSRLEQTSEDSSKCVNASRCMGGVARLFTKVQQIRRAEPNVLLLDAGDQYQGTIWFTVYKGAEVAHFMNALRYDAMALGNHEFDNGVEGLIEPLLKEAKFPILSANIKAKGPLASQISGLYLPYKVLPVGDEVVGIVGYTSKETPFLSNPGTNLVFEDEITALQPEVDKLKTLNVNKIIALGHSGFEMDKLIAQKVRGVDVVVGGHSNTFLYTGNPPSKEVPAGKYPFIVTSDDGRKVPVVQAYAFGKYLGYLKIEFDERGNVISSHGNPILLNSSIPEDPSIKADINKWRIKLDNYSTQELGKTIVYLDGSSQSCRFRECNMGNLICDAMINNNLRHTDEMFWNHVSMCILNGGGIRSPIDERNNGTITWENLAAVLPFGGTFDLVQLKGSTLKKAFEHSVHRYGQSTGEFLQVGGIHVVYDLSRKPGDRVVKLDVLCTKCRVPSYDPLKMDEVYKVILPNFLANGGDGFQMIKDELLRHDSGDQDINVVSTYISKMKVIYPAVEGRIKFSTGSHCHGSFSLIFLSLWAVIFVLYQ

Consider `O=P(O)(O)COC[C@H]1O[C@@H](n2ncc3c(N4CC5(CCc6ccccc65)C4)nc(Cl)nc32)[C@H](O)[C@@H]1O`, for which the EC50 in [1] was 0.11 µM. At 5'-nucleotidase [2], the IC50 worked out at 0.05 µM.
Regarding `Cn1c(=O)n([C@@H]2O[C@H](COP(=O)(O)OP(=O)(O)O)[C@@H](O)[C@H]2O)cc/c1=N/Oc1ccccc1`, the Ki on 5'-nucleotidase [3] was determined as 0.0101 µM.
Consider `CN(Cc1ccccc1F)c1nc(Cl)nc2c1ncn2[C@@H]1O[C@H](COP(=O)(O)OP(=O)(O)O)[C@@H](O)[C@H]1O`, for which the inhibitory constant (Ki) on 5'-nucleotidase [4] turned out to be 0.000318 µM.
For `C=C(C)[C@@H]1CC[C@]2(C(=O)O)CC[C@]3(C)[C@H](CC[C@@H]4[C@@]5(C)CC[C@H](OC(=O)c6ccc(F)cc6)C(C)(C)[C@@H]5CC[C@]43C)[C@@H]12`, the IC50 on 5'-nucleotidase [5] came out at 0.56 µM.
For `COC[C@](CO)(OC[C@H]1O[C@@H](n2ncc3c(NC4CCCC4)nc(Cl)nc32)[C@H](O)[C@@H]1O)P(=O)(O)O`, the IC50 on 5'-nucleotidase [2] came out at 0.25 µM.
Turning to `Nc1ncnc2c1ncn2[C@@H]1O[C@H](COP(=O)(O)OP(=O)(O)O)[C@@H](O)[C@H]1O` [ADENOSINE DIPHOSPHATE], at 5'-nucleotidase [6], the IC50 was determined as 0.0038 µM. Further, the Ki on 5'-nucleotidase [4] was 0.0884 µM.
In the case of `C=C[C@]1(C)C[C@@H](OC(=O)CO)[C@]2(C)[C@H](C)CC[C@]3(CCC(=O)[C@H]32)[C@@H](C)[C@@H]1O`, on 5'-nucleotidase [7], the inhibition came out at 70%.
As to `C=C(C)[C@@H]1CC[C@]2(C(=O)O)CC[C@]3(C)[C@H](CC[C@@H]4[C@@]5(C)CC[C@H](OC(=O)c6ccc(F)c(F)c6)C(C)(C)[C@@H]5CC[C@]43C)[C@@H]12`, the IC50 on 5'-nucleotidase [5] came out at 0.74 µM. Also, the Activity in the experiment on MDA-MB-231 [8] came out at 87.59%.
For the compound `O=P(O)(O)CP(=O)(O)CC(O)[C@H]1O[C@@H](n2ccnn2)[C@H](O)[C@@H]1O` (stereo not given in full), the concentration for half-maximal inhibition (IC50) at 5'-nucleotidase [9] and on 5'-nucleotidase [2] was 0.86 µM in each case.
In the case of `C=C(C)[C@@H]1CC[C@]2(C(=O)O)CC[C@]3(C)[C@H](CC[C@@H]4[C@@]5(C)CC[C@H](OC(=O)c6c(F)c(F)c(F)c(F)c6F)C(C)(C)[C@@H]5CC[C@]43C)[C@@H]12`, 0.47 µM corresponded to half-maximal inhibition against 5'-nucleotidase [5] (IC50).
On to `CCN(CC)c1nc(Cl)nc2c1ncn2[C@@H]1O[C@H](COCP(=O)(O)OP(=O)(O)C(Br)(Br)P(=O)(O)O)[C@@H](O)[C@H]1O`, for which the Ki on 5'-nucleotidase [3] came to 0.451 µM.
Turning to `C=C[C@]1(C)C[C@@H](OC(=O)CSCCN(CC)CC)[C@]2(C)[C@H](C)CC[C@]3(CCC(=O)[C@H]32)[C@@H](C)[C@@H]1O` [TIAMULIN], the Activity with MDA-MB-231 [10] is listed as 76.2%; in the experiment on 4T1, 67.01%. In the experiment listed under Homo sapiens, this compound came in with an inhibition of 85.7%.
On to `Nc1ncnc2c1ncn2COCCOP(=O)(O)CP(=O)(O)O`, for which, at 5'-nucleotidase [3], the Ki was found to be 12.6 µM.
Turning to `C=C(C)[C@@H]1CC[C@]2(C(=O)O)CC[C@]3(C)[C@H](CC[C@@H]4[C@@]5(C)CC[C@H](O)C(C)(C)[C@@H]5CC[C@]43C)[C@@H]12` [BETULINIC ACID], the Ki at 5'-nucleotidase [11] stood at 7.8 µM.
